Reference: patent publication US20250034216A1, “STEREOSELECTIVE COVALENT LIGANDS FOR ONCOGENIC AND IMMUNOLOGICAL PROTEINS” (The Scripps Research Institute, priority 2021, published 2025)

Columns and labels:
Test in all cases: IA-DTB cysteine engagement
Assay type in all cases: binding
Conditions in all cases: 22Rv1 cells, 20 μM probe, 1 h, relative to DMSO
CCNE2_C109 = target: T1, CCNE2_C109 (Homo sapiens, UniProt O96020)
T1 construct: endogenous in cells; host or cells: 22Rv1
How it was run: (§1)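 Probe-exposed cells were lysed, IA-DTB-labeled, trypsinized and streptavidin-enriched. Multiplexed TMT quantitation gave engagement ratios versus DMSO, with non-tryptic peptides excluded and intensities normalized to median summed signal.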

WDR45B_C63 = target: T2, WDR45B_C63 (Homo sapiens, UniProt Q5MNZ6)
T2 construct: endogenous in cells; host or cells: 22Rv1
How it was run: as §1

PRORP_C507 = target: T3, PRORP_C507 (Homo sapiens, UniProt O15091)
T3 construct: endogenous in cells; host or cells: 22Rv1
T3 sequence (O15091 46-583): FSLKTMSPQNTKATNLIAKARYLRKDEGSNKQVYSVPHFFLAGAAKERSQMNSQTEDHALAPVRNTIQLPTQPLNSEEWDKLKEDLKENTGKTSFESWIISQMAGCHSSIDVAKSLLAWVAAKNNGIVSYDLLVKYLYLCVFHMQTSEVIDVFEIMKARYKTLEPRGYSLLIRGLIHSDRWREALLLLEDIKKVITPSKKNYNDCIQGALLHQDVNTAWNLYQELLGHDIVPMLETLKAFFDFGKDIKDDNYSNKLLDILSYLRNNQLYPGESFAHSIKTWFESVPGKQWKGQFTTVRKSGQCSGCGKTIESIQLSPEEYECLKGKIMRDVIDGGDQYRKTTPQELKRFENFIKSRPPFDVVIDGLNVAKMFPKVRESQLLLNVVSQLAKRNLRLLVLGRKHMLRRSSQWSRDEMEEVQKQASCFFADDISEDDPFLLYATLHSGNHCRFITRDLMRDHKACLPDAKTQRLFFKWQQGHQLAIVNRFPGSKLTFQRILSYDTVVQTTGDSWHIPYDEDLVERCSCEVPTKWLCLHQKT
How it was run: as §1

ZFC3H1_C1778 = target: T4, ZFC3H1_C1778 (Homo sapiens, UniProt O60293)
T4 construct: endogenous in cells; host or cells: 22Rv1
How it was run: as §1

ABCB8_C454 = target: T5, ABCB8_C454 (Homo sapiens, UniProt Q9NUT2)
T5 construct: endogenous in cells; host or cells: 22Rv1
T5 sequence (Q9NUT2 26-735): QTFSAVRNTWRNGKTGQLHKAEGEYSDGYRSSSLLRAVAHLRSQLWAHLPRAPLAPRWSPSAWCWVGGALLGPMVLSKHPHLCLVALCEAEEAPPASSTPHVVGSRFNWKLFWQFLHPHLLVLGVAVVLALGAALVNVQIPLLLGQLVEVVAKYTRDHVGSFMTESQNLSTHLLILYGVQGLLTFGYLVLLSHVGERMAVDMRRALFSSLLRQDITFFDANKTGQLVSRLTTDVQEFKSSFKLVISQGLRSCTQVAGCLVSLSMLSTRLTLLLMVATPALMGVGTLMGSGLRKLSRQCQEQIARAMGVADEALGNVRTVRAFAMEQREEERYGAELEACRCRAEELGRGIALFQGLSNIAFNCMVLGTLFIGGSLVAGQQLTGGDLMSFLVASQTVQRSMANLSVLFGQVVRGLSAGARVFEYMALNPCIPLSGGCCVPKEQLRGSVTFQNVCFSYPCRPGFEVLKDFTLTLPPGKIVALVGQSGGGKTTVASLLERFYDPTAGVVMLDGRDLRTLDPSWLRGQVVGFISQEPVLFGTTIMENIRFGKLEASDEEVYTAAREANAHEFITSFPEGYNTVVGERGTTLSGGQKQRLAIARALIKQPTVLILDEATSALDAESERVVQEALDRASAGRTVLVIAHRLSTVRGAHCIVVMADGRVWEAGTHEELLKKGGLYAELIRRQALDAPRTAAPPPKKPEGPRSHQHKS
How it was run: as §1

T4 sequence (O60293 whole entry): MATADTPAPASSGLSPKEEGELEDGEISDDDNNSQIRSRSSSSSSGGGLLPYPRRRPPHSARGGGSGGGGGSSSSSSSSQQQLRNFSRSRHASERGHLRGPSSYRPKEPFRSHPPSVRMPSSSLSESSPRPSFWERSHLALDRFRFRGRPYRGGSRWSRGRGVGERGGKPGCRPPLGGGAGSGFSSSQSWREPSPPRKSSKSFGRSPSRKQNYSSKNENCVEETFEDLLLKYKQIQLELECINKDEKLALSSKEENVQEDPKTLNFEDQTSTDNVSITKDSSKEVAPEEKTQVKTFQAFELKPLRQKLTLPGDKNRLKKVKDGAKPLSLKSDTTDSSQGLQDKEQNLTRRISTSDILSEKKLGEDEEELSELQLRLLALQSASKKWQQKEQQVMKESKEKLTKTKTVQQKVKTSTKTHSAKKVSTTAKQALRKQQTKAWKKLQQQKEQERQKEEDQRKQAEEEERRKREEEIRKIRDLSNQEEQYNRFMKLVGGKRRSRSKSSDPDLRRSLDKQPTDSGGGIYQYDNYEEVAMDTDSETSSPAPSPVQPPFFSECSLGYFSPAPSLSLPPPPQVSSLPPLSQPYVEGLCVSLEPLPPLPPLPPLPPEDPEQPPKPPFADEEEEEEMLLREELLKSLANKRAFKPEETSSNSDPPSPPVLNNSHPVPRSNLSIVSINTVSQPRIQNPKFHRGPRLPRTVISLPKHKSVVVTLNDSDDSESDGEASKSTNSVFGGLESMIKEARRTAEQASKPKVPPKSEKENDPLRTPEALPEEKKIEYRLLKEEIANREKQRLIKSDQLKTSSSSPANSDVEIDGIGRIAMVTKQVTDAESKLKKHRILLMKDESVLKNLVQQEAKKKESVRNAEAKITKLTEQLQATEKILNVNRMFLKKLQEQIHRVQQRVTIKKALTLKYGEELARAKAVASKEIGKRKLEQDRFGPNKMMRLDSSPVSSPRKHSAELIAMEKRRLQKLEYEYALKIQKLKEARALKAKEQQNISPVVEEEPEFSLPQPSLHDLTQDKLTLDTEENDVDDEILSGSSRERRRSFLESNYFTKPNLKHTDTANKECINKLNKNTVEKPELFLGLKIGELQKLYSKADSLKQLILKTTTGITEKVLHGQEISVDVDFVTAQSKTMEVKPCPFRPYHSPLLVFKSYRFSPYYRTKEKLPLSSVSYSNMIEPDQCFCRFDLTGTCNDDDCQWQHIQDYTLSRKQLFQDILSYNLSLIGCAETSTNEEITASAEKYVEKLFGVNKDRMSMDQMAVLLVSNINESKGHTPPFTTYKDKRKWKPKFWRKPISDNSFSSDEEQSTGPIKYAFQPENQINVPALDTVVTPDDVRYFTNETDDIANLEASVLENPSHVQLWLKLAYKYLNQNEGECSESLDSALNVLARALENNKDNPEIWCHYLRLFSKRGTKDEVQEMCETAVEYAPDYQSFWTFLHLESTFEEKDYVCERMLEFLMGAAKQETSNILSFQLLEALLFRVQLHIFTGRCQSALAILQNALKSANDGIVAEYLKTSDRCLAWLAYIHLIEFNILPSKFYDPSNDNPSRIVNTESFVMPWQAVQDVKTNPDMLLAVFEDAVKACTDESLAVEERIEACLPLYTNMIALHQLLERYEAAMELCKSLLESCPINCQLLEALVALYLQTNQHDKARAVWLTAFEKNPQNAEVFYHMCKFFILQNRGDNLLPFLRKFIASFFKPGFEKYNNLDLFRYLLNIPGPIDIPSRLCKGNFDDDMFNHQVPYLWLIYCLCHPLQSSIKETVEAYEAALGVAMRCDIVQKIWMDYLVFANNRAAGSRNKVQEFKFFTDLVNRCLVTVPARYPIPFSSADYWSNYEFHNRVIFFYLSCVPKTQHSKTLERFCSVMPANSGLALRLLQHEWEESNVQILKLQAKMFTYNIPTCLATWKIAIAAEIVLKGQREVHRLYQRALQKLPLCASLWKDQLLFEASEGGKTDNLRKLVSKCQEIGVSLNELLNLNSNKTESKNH
T1 sequence (O96020 whole entry): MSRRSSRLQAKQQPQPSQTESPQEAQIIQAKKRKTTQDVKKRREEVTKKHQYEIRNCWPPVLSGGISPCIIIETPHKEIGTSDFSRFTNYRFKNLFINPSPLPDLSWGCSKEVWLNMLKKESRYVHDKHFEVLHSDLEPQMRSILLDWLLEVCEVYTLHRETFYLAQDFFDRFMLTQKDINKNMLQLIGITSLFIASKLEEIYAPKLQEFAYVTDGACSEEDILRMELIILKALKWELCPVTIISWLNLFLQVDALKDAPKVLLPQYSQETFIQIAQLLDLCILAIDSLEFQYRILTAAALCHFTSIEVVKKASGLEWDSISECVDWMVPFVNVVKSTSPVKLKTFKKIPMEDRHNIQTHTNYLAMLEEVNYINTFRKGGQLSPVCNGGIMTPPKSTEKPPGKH
T2 sequence (Q5MNZ6 whole entry): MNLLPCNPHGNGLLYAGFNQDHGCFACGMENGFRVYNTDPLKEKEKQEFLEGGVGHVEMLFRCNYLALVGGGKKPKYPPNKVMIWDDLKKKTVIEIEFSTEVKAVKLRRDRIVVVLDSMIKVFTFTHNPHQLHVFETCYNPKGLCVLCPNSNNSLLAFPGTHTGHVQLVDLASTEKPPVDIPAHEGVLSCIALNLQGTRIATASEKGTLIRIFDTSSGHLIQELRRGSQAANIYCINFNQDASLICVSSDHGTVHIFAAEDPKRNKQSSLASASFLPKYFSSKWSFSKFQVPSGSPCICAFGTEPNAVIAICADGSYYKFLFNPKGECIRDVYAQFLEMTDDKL

% engagement CCNE2_C109 (CCNE2_C109) [%]	% engagement WDR45B_C63 (WDR45B_C63) [%]	% engagement PRORP_C507 (PRORP_C507) [%]	% engagement ZFC3H1_C1778 (ZFC3H1_C1778) [%]	% engagement ABCB8_C454 (ABCB8_C454) [%]	Structure (SMILES)
77	52.25	6.75	70.75	−1.25	C=CC(=O)N1C[C@@H](c2ccc(Br)cc2)[C@H]1C(=O)Nc1cccc2cccnc12 [MY-1A, (2S,3R)-1-acryloyl-3-(4-bromophenyl)-N-(quinolin-8-yl)azetidine-2-carboxamide]
76.75	7.25	74.25	7	14	C=CC(=O)N1C[C@H](c2ccc(Br)cc2)[C@@H]1C(=O)Nc1cccc2cccnc12 [MY-1B, (2R,3S)-1-acryloyl-3-(4-bromophenyl)-N-(quinolin-8-yl)azetidine-2-carboxamide]
42.75	86.75	34.5	−22.75	67	C=CC(=O)N1C[C@H](c2ccc(Br)cc2)[C@H]1C(=O)Nc1cccc2cccnc12 [MY-3B, (2S,3S)-1-acryloyl-3-(4-bromophenyl)-N-(quinolin-8-yl)azetidine-2-carboxamide]
21.75	0	1.25	47.75	24	C=CC(=O)N1C[C@H](c2ccc(Br)cc2)[C@H]1C(=O)Nc1cccc2cccnc12 [MY-3A, (2S,3S)-1-acryloyl-3-(4-bromophenyl)-N-(quinolin-8-yl)azetidine-2-carboxamide]
